Our source for the IC50 and Activity values is ChEMBL document CHEMBL4334552, “Discovery of BMS-986260, a Potent, Selective, and Orally Bioavailable TGFβR1 Inhibitor as an Immuno-oncology Agent” (ACS Med Chem Lett, 2020).

The target of one data set is T1, Cytochrome P450 2C8 (Homo sapiens, UniProt P10632).
T1 sequence (P10632 whole entry): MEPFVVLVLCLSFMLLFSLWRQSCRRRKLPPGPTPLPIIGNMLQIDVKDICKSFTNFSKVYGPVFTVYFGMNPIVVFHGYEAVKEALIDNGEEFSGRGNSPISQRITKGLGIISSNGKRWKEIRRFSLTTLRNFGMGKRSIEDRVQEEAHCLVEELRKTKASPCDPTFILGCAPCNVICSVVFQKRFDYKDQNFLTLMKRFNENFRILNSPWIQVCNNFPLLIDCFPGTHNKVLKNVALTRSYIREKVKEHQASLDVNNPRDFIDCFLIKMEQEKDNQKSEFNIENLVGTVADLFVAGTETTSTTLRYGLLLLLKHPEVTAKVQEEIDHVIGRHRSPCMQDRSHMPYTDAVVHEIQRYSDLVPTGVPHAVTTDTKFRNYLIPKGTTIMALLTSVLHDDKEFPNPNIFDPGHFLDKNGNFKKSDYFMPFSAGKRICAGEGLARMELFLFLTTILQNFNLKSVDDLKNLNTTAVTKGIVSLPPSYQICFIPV
Description: Inhibition of recombinant CYP2C8 (unknown origin). Format: ADME.

A short description of data set [1]: Cardiovascular toxicity in rat 1 mg/kg, po dosed every 3 days on and 4 days off treatment regime for 1 month. Format: organism-based. The following applies: in vivo.

A word on the IC50: it is the concentration at which inhibition is half-maximal.

For `N#Cc1cnc2ccc(-c3c(-c4ccc(F)c(Cl)c4)ncn3CCO)nn12`, the IC50 on Cytochrome P450 2C8 is > 20 µM. Further, the Activity result in data set [1] is given as “Non-Toxic”.
